# According to patent US20120040930A1, “TETRACYCLIC TERPENE SERIES COMPOUNDS, METHODS FOR PREPARING SAME, USES THEREOF AS MEDICINES AND PHARMACEUTICAL COMPOUNDS CONTAINING SAME” (priority 2005, published 2012):
# Assays:
# [1] = system: skeletal neuromuscular junction; assay: Cellular electrophysiology on isolated mouse neuromuscular preparations
# Protocol: This extension of synaptic potentials is observed when the mouse neuromuscular preparations are placed in a normal survival medium (Krebs-Ringer) containing (in mM) NaCl, 151; KCl, 5; MgCl2, 1; CaCl2, 2; glucose, 11; and HEPES-NaOH, 5 (pH 7.4); and when the survival medium contains low concentrations of CaCl2 (0.4-1 mM) and high concentrations of MgCl2 (4-8 mM) to reduce the release of acetylcholine. The extension of synaptic potentials at the neuromuscular junction reflects the mean lifespan of synaptic channels opened by acetylcholine during their interactions with skeletal muscle nicotinic receptors. Inhibition of acetylcholinesterase increases acetylcholine concentration at the synaptic cleft, which allows acetylcholine to bind repeatedly with these receptors, thus extending the duration of synaptic responses.
# Thus, the inhibition of acetylcholinesterase by this compound is not accompanied by depolarization of the muscle membrane.
# From a pharmacological point of view, the inventors first tested the ability of compound 8e to modify nerve axon conduction.
# [2] = biological target: T1, human serum butyrylcholinesterase (BChE) (Homo sapiens, UniProt P06276); assay: biochemical; conditions: human serum BChE; read-out: BChE
# T1 construct: BChE isolated from human serum; from tissue; host or cells: human serum
# [3] = biological target: T2, muscle nicotinic acetylcholine receptors (Mus musculus, UniProt P02716+P04756+P09690+P20782); assay: Electrophysiology: interaction with muscle nicotinic acetylcholine receptors, mouse neuromuscular junction
# T2 construct: isolated living vertebrate (frog and mouse) neuromuscular preparations; from tissue; host or cells: isolated mouse neuromuscular preparation
# Excerpt: (§1) Secondly, the inventors determined, using electrophysiology, the ability of compound 8e to interact with muscle nicotinic acetylcholine receptors.
# [4] = system: muscle nicotinic acetylcholine receptors; assay: Electrophysiology: interaction with muscle nicotinic acetylcholine receptors, frog neuromuscular junction; conditions: 160 μM
# Excerpt: as §1
# [5] = biological target: T3, acetylcholinesterase (AChE) isolated from Electrophorus electricus (Electrophorus electricus, UniProt O42275); assay: biochemical; conditions: AChE isolated from Electrophorus electricus; read-out: AChE IC50
# T3 construct: AChE isolated from Electrophorus electricus; from tissue
# T3 sequence (O42275 24-633): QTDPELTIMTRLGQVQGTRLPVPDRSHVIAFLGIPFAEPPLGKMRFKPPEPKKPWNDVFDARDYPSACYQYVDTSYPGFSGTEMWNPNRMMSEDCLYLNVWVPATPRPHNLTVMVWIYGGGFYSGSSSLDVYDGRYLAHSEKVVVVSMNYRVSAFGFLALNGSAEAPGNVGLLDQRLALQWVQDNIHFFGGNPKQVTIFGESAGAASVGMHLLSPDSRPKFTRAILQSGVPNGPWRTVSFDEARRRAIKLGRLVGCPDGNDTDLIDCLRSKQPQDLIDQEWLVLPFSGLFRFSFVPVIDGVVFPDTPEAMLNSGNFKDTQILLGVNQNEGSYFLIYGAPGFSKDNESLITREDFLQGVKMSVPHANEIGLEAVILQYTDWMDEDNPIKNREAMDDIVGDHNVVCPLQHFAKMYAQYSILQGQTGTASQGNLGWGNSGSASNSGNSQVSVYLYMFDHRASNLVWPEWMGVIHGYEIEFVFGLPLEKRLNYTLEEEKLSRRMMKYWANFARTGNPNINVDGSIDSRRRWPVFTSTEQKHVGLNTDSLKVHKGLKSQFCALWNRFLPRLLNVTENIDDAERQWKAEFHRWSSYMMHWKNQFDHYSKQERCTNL
# T2 sequence (P04756 21-457): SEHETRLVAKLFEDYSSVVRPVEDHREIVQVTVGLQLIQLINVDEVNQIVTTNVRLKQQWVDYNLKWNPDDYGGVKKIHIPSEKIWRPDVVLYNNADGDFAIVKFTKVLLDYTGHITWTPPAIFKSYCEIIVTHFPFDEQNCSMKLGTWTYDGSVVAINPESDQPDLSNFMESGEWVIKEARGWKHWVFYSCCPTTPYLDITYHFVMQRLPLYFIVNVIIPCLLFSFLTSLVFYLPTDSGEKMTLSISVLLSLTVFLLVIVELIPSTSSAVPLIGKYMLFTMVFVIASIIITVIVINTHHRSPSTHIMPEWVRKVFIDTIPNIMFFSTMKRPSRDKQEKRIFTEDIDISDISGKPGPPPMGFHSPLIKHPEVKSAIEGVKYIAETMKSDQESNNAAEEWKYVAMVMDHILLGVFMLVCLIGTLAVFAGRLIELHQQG
# T2 sequence (P09690 24-501): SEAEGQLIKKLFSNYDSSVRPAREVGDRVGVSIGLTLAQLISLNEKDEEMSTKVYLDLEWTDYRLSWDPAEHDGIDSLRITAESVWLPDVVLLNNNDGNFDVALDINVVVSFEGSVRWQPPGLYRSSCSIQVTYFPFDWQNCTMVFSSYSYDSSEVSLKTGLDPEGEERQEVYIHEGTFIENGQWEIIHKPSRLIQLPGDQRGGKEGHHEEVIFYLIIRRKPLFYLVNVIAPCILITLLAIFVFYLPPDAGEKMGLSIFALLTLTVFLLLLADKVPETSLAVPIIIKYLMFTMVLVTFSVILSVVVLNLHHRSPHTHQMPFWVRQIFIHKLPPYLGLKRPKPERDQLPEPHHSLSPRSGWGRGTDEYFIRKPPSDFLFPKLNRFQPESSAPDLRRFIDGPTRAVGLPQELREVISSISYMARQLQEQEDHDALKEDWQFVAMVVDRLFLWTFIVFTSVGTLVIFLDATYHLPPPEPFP
# T2 sequence (P02716 25-520): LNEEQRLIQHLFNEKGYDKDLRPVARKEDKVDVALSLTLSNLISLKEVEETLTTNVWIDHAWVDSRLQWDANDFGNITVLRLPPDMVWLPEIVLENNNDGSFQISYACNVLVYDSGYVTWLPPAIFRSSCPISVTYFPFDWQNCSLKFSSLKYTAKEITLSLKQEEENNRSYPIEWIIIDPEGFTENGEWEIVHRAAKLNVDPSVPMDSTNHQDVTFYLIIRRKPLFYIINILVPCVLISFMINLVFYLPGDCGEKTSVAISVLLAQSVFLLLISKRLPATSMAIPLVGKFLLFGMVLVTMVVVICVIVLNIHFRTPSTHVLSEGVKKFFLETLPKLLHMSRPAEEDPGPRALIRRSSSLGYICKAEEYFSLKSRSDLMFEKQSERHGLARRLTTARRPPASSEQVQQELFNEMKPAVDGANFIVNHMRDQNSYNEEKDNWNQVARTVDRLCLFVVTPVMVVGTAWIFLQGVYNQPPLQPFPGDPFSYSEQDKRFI
# T2 sequence (P20782 21-493): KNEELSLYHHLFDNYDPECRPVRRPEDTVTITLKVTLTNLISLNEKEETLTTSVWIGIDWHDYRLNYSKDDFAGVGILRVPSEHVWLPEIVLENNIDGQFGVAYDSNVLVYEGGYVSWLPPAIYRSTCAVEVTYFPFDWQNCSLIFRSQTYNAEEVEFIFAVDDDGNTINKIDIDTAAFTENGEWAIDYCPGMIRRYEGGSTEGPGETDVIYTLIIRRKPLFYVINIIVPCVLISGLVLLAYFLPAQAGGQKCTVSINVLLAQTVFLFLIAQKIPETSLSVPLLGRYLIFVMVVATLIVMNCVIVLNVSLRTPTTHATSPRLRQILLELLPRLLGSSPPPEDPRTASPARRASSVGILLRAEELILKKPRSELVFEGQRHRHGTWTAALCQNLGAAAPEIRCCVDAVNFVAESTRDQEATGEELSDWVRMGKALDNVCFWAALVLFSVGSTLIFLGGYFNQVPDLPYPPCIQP
# T1 sequence (P06276 29-602): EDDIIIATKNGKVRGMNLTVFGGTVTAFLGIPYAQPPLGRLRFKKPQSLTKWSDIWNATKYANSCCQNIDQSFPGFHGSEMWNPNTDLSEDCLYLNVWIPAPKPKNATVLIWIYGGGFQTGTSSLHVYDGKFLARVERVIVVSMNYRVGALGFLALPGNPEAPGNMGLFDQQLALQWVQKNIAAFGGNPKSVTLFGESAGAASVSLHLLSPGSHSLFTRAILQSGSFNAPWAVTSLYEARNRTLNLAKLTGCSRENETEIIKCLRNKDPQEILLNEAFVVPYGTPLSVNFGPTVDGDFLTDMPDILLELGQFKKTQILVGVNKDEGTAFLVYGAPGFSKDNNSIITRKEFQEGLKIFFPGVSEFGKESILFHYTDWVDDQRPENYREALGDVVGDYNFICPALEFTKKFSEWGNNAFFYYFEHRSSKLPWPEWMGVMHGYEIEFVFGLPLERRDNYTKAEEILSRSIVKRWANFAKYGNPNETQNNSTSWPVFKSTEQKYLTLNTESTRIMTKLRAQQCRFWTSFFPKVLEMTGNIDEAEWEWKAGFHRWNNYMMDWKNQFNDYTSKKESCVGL
structure (smiles),measurement,setting,value
"CC[C@H](C)C1=N[C@H]2CC=C3C[C@H]4C(=O)C[C@]5(C)[C@@H]([C@H](C)N(C)C)[C@H](O)C[C@@]5(C)[C@@H]4CC[C@H]3[C@]2(C)CO1 [Compound 8e, (20S)-10(9->1)abeo-4,14α-dimethyl-20-dimethylamino(2′-(S-1-methylpropyl)-4′,4′-dihydro[3′,1′]oxazin)-5α,9-pregn-1(10)-en-16α-ol-11-one]",nerve axon conduction,"[1]; 1 μM to 300 μM, mouse neuromuscular preparations",does not apparently modify nerve conduction
same,synaptic response half-times (motor end-plate potentials and miniature end-plate potentials),"[1]; 1-25 μM, mouse neuromuscular preparations, normal Krebs-Ringer or low CaCl2/high MgCl2 medium",produces an extension of synaptic response half-times
same,effect on muscle fiber resting potentials,[1]; concentrations that extend synaptic potentials and higher (160-200 μM),does not have a significant effect
same,IC50,[2],> 1 µM
same,motor end-plate miniature potentials,"[3]; 80 μM, species not given",causes a decrease in amplitude and blocking
same,block of motor end-plate potentials evoked by motor nerve stimulation,"[3]; 160 μM, mouse neuromuscular junction",80%
same,block of motor end-plate potentials evoked by motor nerve stimulation,[4],80%
same,IC50,[5],0.013 µM
